“Also recorded” adds a separate entry of the source.
What was measured:
[1] = test system: fibroblast cell line MRC5; test: Growth inhibition experiments (MTT, 5 d), MRC5; type: cell-based, human; conditions: Table 1
Experimental: (§1) With primary cells (HUVEC, human umbilical vein endothelial cells) and the fibroblast cell line MRC5 this is not the case. Whereas chondramides A˜C are comparably active on both, cancer and non-cancerous cells, brominated chondramide C3 analogs are on average by factor 2-4 less toxic for non-cancerous cells. Accordingly they show a higher selectivity.
(§2) Cells were seeded at 6×10^3 cells per well of 96-well plates (Corning CellBind®) in 180 μl complete medium and directly treated with chondramides dissolved in methanol in a serial dilution. Each compound was tested in duplicate for 5 d, as well as the internal methanol control. After 5 d incubation, 20 μl of 5 mg/ml MTT (Mosmann, T. (1983). Rapid Colorimetric Assay for Cellular Growth and Survival: Application to Proliferation and Cytotoxicity Assays. J. Immunol. Meth. 65, 55-63) in PBS was added per well and it was further incubated for 2 h at 37° C. The medium was then discarded and cells were washed with 100 μl PBS before adding 100 μl 2-propanol/10 N HCl (250:1) in order to dissolve formazan granules. The absorbance at 570 nm was measured using a microplate reader (EL808, Bio-Tek Instruments Inc.), and cell viability was expressed as percentage relative to the respective methanol control. GI50 values were obtained by sigmoidal curve fitting. Testing of fractions was performed likewise using 1.2×10^4 cells per well. Samples were dissolved in cell culture medium and cells were treated for 2 d before adding MTT. Viability was expressed relative to the untreated control.

L-929 = test: Growth inhibition experiments (GI50), L-929; type: cell-based; conditions: Table 1
[2] = test system: HUVEC, human umbilical vein endothelial cells (primary cells); test: Growth inhibition experiments (MTT, 5 d), HUVEC; type: cell-based; conditions: Table 1
Description: as §1
(§3) Cell lines were obtained from the American Type Culture Collection (ATCC) and the German Collection of Microorganisms and Cell Cultures (Deutsche Sammlung für Mikroorganismen and Zellkulturen, DSMZ), and HUVEC (single donor) were purchased from PromoCell. Cells were cultured under the conditions recommended by the respective depositor in a standard humidified incubator at 37° C. with 5% CO2.
as §2

[3] = test system: panel of cell lines derived from various origins and tissues (cancer cell lines, non-cancerous cell lines, primary cells); test: Growth inhibition experiments (MTT, 5 d), panel of cell lines; type: cell-based; conditions: for growth inhibitory activity in cell lines (in words, compared to chondramides A~C / other derivatives): GI50-based comparison, panel of cell lines
Experimental: First, the compounds were tested on a small panel of cell lines derived from various origins and tissues. GI50 values were compared to those determined using chondramides A˜C (see Table 1).
as §3, §2
These compounds were profiled regarding their growth inhibitory potential in a panel of cancer cell lines. Natural chondramide A was used as reference:
Biological evaluation of group A derivatives. GI50 values [nM] were determined in a small panel of cancer cell lines.

[4] = test system: human U-2 OS osteosarcoma cell line; test: Growth inhibition experiments (MTT, 5 d), U-2 OS; type: cell-based; conditions: Table 1; U-2 OS; read-out: GI50 values U-2 OS
Experimental: as §2

[5] = test system: multidrug resistant (MDR) KB-V.1 cell line; test: Growth inhibition experiments (MTT, 5 d), KB-V.1; type: cell-based; conditions: Table 1
Experimental: Cancer Inst. 90, 1559-1563). […] The same applies for most novel derivatives, solely a hydroxyl group at C2′ of the polyketide segment instead of methoxy or simply hydrogen leads to an approximately 10-fold reduced potency. GI50 values of glycosylated derivatives were not determinable precisely in the assay's concentration range.
as §2

[6] = test system: KB-3.1: human cervical carcinoma; test: Growth inhibition experiments (GI50), KB-3.1; type: cell-based; conditions: Table 1; KB-3.1
[7] = test system: HCT-116 colon carcinoma cell line; test: Growth inhibition experiments (MTT, 5 d), HCT-116; type: cell-based, human; conditions: Table 1; HCT-116; read-out: GI50 values HCT-116
Experimental: as §2

[8] = target: T1, pyrene-labeled rabbit muscle actin (Oryctolagus cuniculus, UniProt P68135); test: Actin polymerization assay (pyrene actin fluorescence); type: biochemical; conditions: 20 μM derivative, 5 μM pyrene actin, non-polymerizing buffer, followed over 85 min
T1 construct: pyrene-labeled rabbit muscle actin; purchased Cytoskeleton, Inc; host or cells: rabbit muscle (tissue-derived; inferred from the name)
Experimental: A final concentration of 20 μM for each derivative was chosen and polymerization was followed over 85 min.
Fluorescence-based actin polymerization assays were performed using pyrene muscle actin (Cytoskeleton, Inc.) according to the supplier's protocol. Chondramides were dissolved in non-polymerizing buffer (5 mM Tris-HCl pH 8.0, 0.2 mM CaCl2, 0.2 mM ATP, 1 mM DTT) and mixed with pyrene actin diluted in the same buffer to give a final concentration of 20 μM chondramide and 5 μM actin. Samples were prepared in black, low-volume 384-well plates (Corning, NBS™ surface). The fluorescence at 405 nm (excitation at 360 nm) was scanned every 30 s for 85 min at 37° C. on a microplate reader (Spectramax M5^e, Molecular Devices). Experiments were performed in duplicates and the average relative fluorescence of polymerizing pyrene actin is given. Slopes were calculated in the linear range of kinetic measurements.

Row | Structure (SMILES) | melting point [°C] | GI50 [1] [nM] | GI50 (L-929) [nM] | GI50 [2] [nM] | GI50 values on human cancer cell lines ([3]; human cancer cell lines, cell-based studies) | GI50 [4] [nM] | GI50 values KB-V.1 [5] | GI50 values KB-3.1 [6] | GI50 [7] [nM] | actin-polymerizing effect (G-actin polymerization in vitro) [8] | growth inhibitory activity in cell lines (in words, compared to chondramides A~C / other derivatives) [3] | GI50 values HUVEC [2]
1 | C/C1=C\CCOC(=O)C[C@H](c2ccc(O)c(Cl)c2)NC(=O)[C@@H](Cc2c[nH]c3ccccc23)N(C)C(=O)[C@H](C)NC(=O)CC1 | 122 to 126 |  |  |  |  |  |  |  |  |  |  | 
2 | C/C1=C\CCOC(=O)C[C@H](c2ccc(O)c(Cl)c2)NC(=O)[C@@H](Cc2c(Cl)[nH]c3ccccc23)N(C)C(=O)[C@H](C)NC(=O)CC1 | 135 to 139 |  |  |  |  |  |  |  |  |  |  | 
3 | C/C1=C\CCOC(=O)C[C@H](c2ccc(O)c(Br)c2)NC(=O)[C@@H](Cc2c[nH]c3ccccc23)N(C)C(=O)[C@H](C)NC(=O)CC1 | 129 to 132 |  |  |  |  |  |  |  |  |  |  | 
4 | COC1C(=O)OC(C)C(C)C=C(C)CC(C)C(=O)NC(C)C(=O)N(C)C(Cc2c[nH]c3ccccc23)C(=O)NC1c1ccc(O)c(Br)c1 (centres unmarked) [Bromo-Chondramide A3] |  | 44.5 ± 4.9 | 69.4 ± 1.5 | 32.7 ± 2.9 | low nanomolar range | 37.7 ± 2.8 | 11.2 ± 0.4 nM | 74.5 ± 14.2 nM | 42.9 ± 3.2 | quickly polymerizes G-actin |  | 
5 | COC1C(=O)OC(C)C(C)C=C(C)CC(C)C(=O)NC(C)C(=O)N(C)C(Cc2c[nH]c3ccccc23)C(=O)NC1c1ccc(O)c(Cl)c1 (centres unmarked) [Chondramide A3] |  | 38 ± 2.8 | 72.8 ± 3.6 | 50.5 ± 5.6 |  | 46.7 ± 6.5 | 85.7 ± 1.4 nM | 63.5 ± 12.6 nM | 28.6 ± 3.9 | significantly reduced actin-polymerizing effect | comparable to chondramides A˜C | 
6 | COC1C(=O)OC(C)C(C)C=C(C)CC(C)C(=O)NC(C)C(=O)N(C)C(Cc2c(Cl)[nH]c3ccccc23)C(=O)NC1c1ccc(OP(=O)(O)O)cc1 (centres unmarked) [Chondramide A6] |  | 25.9 ± 1.5 | 44.6 ± 5.5 | 67.7 ± 10.4 |  | 51.6 ± 4.6 | 23.1 ± 1.5 nM | 49.3 ± 7.6 nM | 60.9 ± 3.5 | significantly reduced actin-polymerizing effect | comparable to chondramides A˜C | 
7 | COC1C(=O)OC(C)C(C)C=C(C)CC(C)C(=O)NC(C)C(=O)N(C)C(Cc2c(Cl)[nH]c3ccccc23)C(=O)NC1c1ccc(OP(=O)(O)O)c(Cl)c1 (centres unmarked) [Chondramide A8] |  | 7.6 ± 4.7 | 56.2 ± 12.5 | 24.1 ± 7.9 |  | 33.2 ± 3.4 | 58.1 ± 4.0 nM | 13.4 ± 3.0 nM | 49.3 ± 7.6 | significantly reduced actin-polymerizing effect | comparable to chondramides A˜C | 
8 | COC1C(=O)OC(C)C(C)C=C(C)CC(C)C(=O)NC(C)C(=O)N(C)C(Cc2c(Cl)[nH]c3ccccc23)C(=O)NC1c1ccc(OC2OC(C(=O)O)C(O)C(O)C2O)c(Cl)c1 (centres unmarked) [Chondramide A10] |  |  |  |  |  |  | w.a. | w.a. |  | slow increase in G-actin polymerization; also recorded: partly restore the ability to polymerize actin | significantly reduced | w.a.
9 | CCC1OC(=O)CC(c2ccc(O)cc2)NC(=O)C(Cc2c[nH]c3ccccc23)N(C)C(=O)C(C)NC(=O)C(C)CC(C)=CC1C (centres unmarked) [Propionyl-Chondramide C1] |  | 71.9 ± 4.1 | 30 ± 7.7 | 54.6 ± 5.5 |  | 15.1 ± 1.1 | 22.7 ± 8.3 nM | 56.3 ± 9.6 nM | 42.1 ± 3.2 | significantly reduced actin-polymerizing effect | comparable to chondramides A˜C | 

Reference: patent publication US20150291658A1, “NOVEL CHONDRAMIDE DERIVATIVES” (HELMOLTZ-ZENTRUM FÜR INFEKTIONSFORSCHUNG, priority 2012, published 2015)
